Measured values taken from patent US10227329B2, “Compounds useful for treating disorders related to RET” (BLUEPRINT MEDICINES CORPORATION, priority 2016, dated 2019).

What was measured:
[1] = molecular target: wild type RET (Homo sapiens (Human), UniProt P07949); test: RET Wild Type Assay at KM (Caliper electrophoretic mobility shift); assay type: biochemical; conditions: 25 μM ATP (KM)
[2] = molecular target: RET V804L (Homo sapiens (Human), UniProt P07949, V804L); test: RET V804L Gatekeeper Mutant Assay at KM (Caliper electrophoretic mobility shift); assay type: biochemical; conditions: 10 μM ATP (KM), read-out: V480L Mutant
Chain of RET V804L (P07949 29-1114 V804L): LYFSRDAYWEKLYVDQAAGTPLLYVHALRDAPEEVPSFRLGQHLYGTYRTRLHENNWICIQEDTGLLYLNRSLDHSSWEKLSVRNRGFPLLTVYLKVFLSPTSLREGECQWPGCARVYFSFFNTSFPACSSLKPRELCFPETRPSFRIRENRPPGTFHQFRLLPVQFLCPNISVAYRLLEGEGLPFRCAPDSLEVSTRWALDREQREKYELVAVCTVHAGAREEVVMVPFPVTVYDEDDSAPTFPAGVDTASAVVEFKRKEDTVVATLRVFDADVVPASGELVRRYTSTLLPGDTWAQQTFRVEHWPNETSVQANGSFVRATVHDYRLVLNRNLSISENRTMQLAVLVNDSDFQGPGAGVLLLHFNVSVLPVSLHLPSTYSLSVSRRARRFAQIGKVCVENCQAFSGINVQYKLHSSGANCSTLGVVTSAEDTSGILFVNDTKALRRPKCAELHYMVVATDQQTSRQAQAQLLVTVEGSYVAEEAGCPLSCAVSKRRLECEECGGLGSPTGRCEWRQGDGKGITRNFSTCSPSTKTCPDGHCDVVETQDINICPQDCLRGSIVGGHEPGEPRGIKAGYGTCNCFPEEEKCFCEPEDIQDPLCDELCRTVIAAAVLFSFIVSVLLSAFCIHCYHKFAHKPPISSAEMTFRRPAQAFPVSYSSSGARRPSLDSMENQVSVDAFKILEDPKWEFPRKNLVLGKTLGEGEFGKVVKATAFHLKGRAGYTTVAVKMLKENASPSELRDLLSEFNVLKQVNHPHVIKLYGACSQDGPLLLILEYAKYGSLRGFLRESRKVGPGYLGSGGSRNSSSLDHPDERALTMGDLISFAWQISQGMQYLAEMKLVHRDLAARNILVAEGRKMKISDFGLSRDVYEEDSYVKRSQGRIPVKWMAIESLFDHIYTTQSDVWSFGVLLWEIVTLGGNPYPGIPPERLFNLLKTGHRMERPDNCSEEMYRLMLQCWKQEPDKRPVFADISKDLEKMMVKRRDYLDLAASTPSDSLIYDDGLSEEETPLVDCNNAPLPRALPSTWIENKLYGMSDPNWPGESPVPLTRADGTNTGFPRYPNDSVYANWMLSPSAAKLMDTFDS

Chain of wild type RET (P07949 29-1114): as the sequence (P07949 29-1114 V804L) above, with L776V counted along it

Row | SMILES | IC50 [1] [µM] | IC50 [2] [µM]
1 | Cc1cc(Nc2cc(C(F)F)cc(N3CC(F)(C(=O)N[C@@H](C)c4ccc(-n5cc(F)cn5)nc4)C3)n2)n[nH]1 [Compound 210] | < 0.01 | < 0.01
2 | COC1(C(=O)NCc2ccc(-n3nc(C)cc3C)nc2)CCN(c2cc(C)cc(Nc3cc(C)[nH]n3)n2)CC1 [Compound 211] | < 0.01 | < 0.01
3 | COC1(C(=O)N[C@@H](C)c2ccc(-n3cc(F)cn3)nc2)CN(c2nc(Nc3cc(C)[nH]n3)cc(C)c2C#N)C1 [Compound 212] | < 0.01 | < 0.01
4 | COC1(C(=O)N[C@@H](C)c2ccc(-n3cc(F)cn3)nc2)CCN(c2cc(C)cc(Nc3cc(C)[nH]n3)n2)CC1 [Compound 216] | < 0.01 | < 0.01
5 | Cc1cc(Nc2cc(C)[nH]n2)nc(N2CCC(CO)(C(=O)N[C@@H](C)c3ccc(-n4cc(F)cn4)nc3)CC2)c1 [Compound 217] | < 0.01 | < 0.01
6 | COC1(C(=O)N[C@@H](C)c2ccc(-n3cc(F)cn3)nc2)CCN(c2cc(C)nc(Nc3cc(C)[nH]n3)n2)CC1 [Compound 220] | < 0.01 | < 0.01
7 | COC1(C(=O)N[C@@H](C)c2ccc(-n3cc(F)cn3)nc2)CN(c2cc(C(F)F)cc(Nc3cc(C)[nH]n3)n2)C1 [Compound 223] | < 0.01 | < 0.01
8 | Cc1cc(N2CCC(CC#N)(C(=O)N[C@@H](C)c3ccc(-n4cc(F)cn4)nc3)CC2)nc(Nc2cc(C)[nH]n2)n1 [Compound 224] | < 0.01 | < 0.01
9 | Cc1cc(Nc2cc(C3CC3)[nH]n2)nc(N2CCC(C)(C(=O)N[C@@H](C)c3ccc(-n4cc(F)cn4)nc3)CC2)c1 [Compound 225] | < 0.01 | < 0.01
10 | COC1(C(=O)NCc2ccc(-n3cc(F)cn3)nc2)CCN(c2nc(Nc3cc(C)[nH]n3)cc(C)c2C#N)CC1 [Compound 226] | < 0.01 | < 0.01
11 | COC1(C(=O)N[C@@H](C)c2ccc(-n3cc(F)cn3)nc2)CCN(c2nc(Nc3cc(C)[nH]n3)cc(C)c2C#N)CC1 [Compound 227] | < 0.01 | < 0.01

Other lines, results leading:

Row | IC50 [1] [µM] | IC50 [2] [µM] | SMILES
12 | < 0.01 | < 0.01 | COCCC1(C(=O)NCc2ccc(-n3cccn3)nc2)CCN(c2nc(C)cc(Nc3cc(C)[nH]n3)n2)CC1 [Compound 213]
13 | < 0.01 | < 0.01 | COC1(C(=O)N(C)[C@@H](C)c2ccc(-n3cccn3)nc2)CCN(c2nc(C)cc(Nc3cc(C)[nH]n3)n2)CC1 [Compound 214]
14 | < 0.01 | < 0.01 | COC1(C(=O)NCc2ccc(-n3nc(C)cc3C)nc2)CCN(c2nc(C)cc(Nc3cc(C)[nH]n3)n2)CC1 [Compound 215]
15 | < 0.01 | < 0.01 | Cc1cc(Nc2cc(C)[nH]n2)nc(N2CCC(CO)(C(=O)N[C@@H](C)c3ccc(-n4cc(F)cn4)nc3)CC2)n1 [Compound 219]
16 | < 0.01 | < 0.01 | COC1(C(=O)N[C@@H](C)c2cnc(-n3cc(F)cn3)cn2)CCN(c2nc(C)cc(Nc3cc(C)[nH]n3)n2)CC1 [Compound 221]
17 | < 0.01 | < 0.01 | COC1(C(=O)N[C@@H](C)c2ccc(-n3cccn3)nc2)CCN(c2nc(Nc3cc(C)[nH]n3)cc(C)c2C#N)CC1 [Compound 222]
18 | < 0.01 | < 0.01 | Cc1cc(Nc2cc(C)[nH]n2)nc(N2CCC(OCC(F)(F)F)(C(=O)NCc3ccc(-n4cccn4)nc3)CC2)n1 [Compound 228]
